The values that follow come from paper PMC9525908, “α-Crystallin chaperone mimetic drugs inhibit lens γ-crystallin aggregation: Potential role for cataract prevention” (The Journal of Biological Chemistry, 2022).

Holding throughout (type): biochemical
One test has as its target T1, HγD (Homo sapiens, UniProt P07320).
T1 construct: made in house; host or cells: E. coli BL21(DE3) pLysS, pET3d vector
T1 sequence (P07320 1-174): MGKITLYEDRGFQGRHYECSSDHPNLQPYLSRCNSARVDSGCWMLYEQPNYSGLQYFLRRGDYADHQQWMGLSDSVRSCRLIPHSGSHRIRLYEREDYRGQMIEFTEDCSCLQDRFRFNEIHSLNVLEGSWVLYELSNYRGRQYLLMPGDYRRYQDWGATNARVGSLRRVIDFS
The test can be described thus: Thermal aggregation (72 °C) turbidity assay, recombinant HγD. The settings on record: for inhibition at 125 µM / Effect on HγD at 2.0 mg/ml and 20 min: 20 min; for inhibition at 125 µM: 75 μM protein, 125 μM or less inhibitor (1.7:1); for Effect on HγD aggregation at low protein / Effect on HγD at 2.0 mg/ml and 20 min: 72 °C. The protocol: For refinement of the aforementioned screen, these compounds were tested at concentrations varying from 50 to 500 μM and 1.5 mg/ml concentration of recombinant HγD, human gamma S (HγS), its deamidation mutants γS_N14, γS_N76, γS_N143 and its triple mutant γSTM (Fig. 1F). In addition, other drugs and compounds that tested positive in the initial screen were also included, such as escin (E), hematein (I), citric acid (CA), docusate sodium (DS), and sennoside A (S) (Fig. S1B). […] For a review, see the study by Roskamp et al. ([38]). […] Thus, drug C and drug G emerged as the strongest antidenaturation/aggregation and potential anticataract drugs. For the mechanistic studies below these two compounds together with either drug M, chosen mostly as negative control, or the entire set of six compounds were used for comparison purpose, whereby the words “drug” or “compound” are used interchangeably in the studies later.
For end-point assays, HγD and MγS (1 mg/ml, 100 μl) in 50 mM K3PO4 buffer (pH 7.2) in set of triplicates in transparent flat bottom 96-well plates were heated at 72 °C for 20 min in the presence and absence of selected drugs at varying concentrations. Absorbance was measured at 600 nm with a SpectraMax iD5 (Molecular Devices).
HγD protein (2.5 mg/ml buffer A) was incubated at 72 °C for 20 min without or with 100 or 400 μM drug G or C in buffer A. Final DMSO concentration was 5% in all samples. […] Therefore, samples with and without 400 μM drug G were chosen for identification of drug G-induced miscleavage sites upon digestion with 25:1 protein:trypsin ratio (sequencing grade modified trypsin; Promega) in buffer A. After 4 h, samples were frozen at −80 °C until processed for determination of miscleavage sites using proteomics analysis. LC–MS/MS analysis was performed on an Orbitrap Eclipse mass spectrometer (Thermo Fisher Scientific) coupled with a Waters nanoAcquity UPLC system (Waters) in total 90 min run using a linear gradient range from 0 to 42% solvent B (0.1% formic acid in acetonitrile) versus solvent A (0.1% formic acid in water) at a flow rate of 300 nl/min. MS1 full mass spectra were acquired in the Orbitrap mass analyzer at the resolution of 120 K. MS/MS tandem mass spectra were generated in the ion trap mass analyzer by collision-induced dissociation of peptide ions at a normalized collision energy of 35%. The resulting MS/MS spectra were searched against human gamma D protein database using Mass Matrix software (MassMatrix, Inc) with the mass errors of 10 ppm and 0.8 Da for MS1 and MS/MS scans, respectively. The oxidation of methionine was set for variable modifications, and three miscleavages were allowed for the search.
(§1) Final DMSO concentration was 5% including in control samples. Microtiter plates were first incubated for 10 min at 72 °C and reincubated for 10 more min. Absorbance was measured at both 10 and 20 min total incubation time.

Another test has as its target T2, HγS_N76D (Homo sapiens, UniProt P22914, N77D).
T2 sequence (P22914 1-178 N77D): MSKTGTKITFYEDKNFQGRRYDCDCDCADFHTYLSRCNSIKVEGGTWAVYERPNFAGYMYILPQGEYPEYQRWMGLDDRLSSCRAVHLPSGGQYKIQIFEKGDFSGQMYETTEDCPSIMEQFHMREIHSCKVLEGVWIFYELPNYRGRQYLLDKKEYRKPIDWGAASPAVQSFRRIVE
The test can be described thus: Thermal aggregation (72 °C, 20 min) turbidity assay, HγS_N76D. The settings on record: read-out: % Suppression; for inhibition: HγS_N76D, 75 μM protein, 72 °C 20 min. From the text: (§2) For a review, see the study by Roskamp et al. ([38]). […] For the mechanistic studies below these two compounds together with either drug M, chosen mostly as negative control, or the entire set of six compounds were used for comparison purpose, whereby the words “drug” or “compound” are used interchangeably in the studies later.

In another test the target is T3, HγS_N14/76/143D (Homo sapiens, UniProt P22914, N144D/N15D/N77D).
T3 sequence (P22914 1-178 N15D/N77D/N144D): T2 sequence (P22914 1-178 N77D) with N15D, N144D
The test can be described thus: Thermal aggregation (72 °C, 20 min) turbidity assay, HγS triple mutant. The settings on record: read-out: % Suppression; for inhibition: HγS_N14/76/143D, 75 μM protein, 72 °C 20 min.
Text: as §2

A further test concerns the target T4, WT-MγS (Mus musculus, UniProt O35486).
T4 construct: made in house; host or cells: E. coli BL21(DE3) pLysS, pET17b vector
T4 sequence (O35486 1-178): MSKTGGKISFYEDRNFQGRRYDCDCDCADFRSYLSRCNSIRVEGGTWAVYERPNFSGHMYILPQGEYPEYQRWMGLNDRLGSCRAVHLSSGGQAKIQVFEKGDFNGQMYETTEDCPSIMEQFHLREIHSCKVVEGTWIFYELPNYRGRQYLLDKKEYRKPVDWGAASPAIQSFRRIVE
The test is described as follows: End-point heat-mediated turbidity assay, WT-MγS. The note with it: for inhibition at 500 µM: read-out: Percent Inhibition of heat mediated aggregation, WT-MGS; for Effect on MγS absorbance: 400 μM drug, 72 °C, protein above 0.5 mg/ml. Here is the method: For end-point assays, HγD and MγS (1 mg/ml, 100 μl) in 50 mM K3PO4 buffer (pH 7.2) in set of triplicates in transparent flat bottom 96-well plates were heated at 72 °C for 20 min in the presence and absence of selected drugs at varying concentrations. Absorbance was measured at 600 nm with a SpectraMax iD5 (Molecular Devices). […]
as §1

Where [1] appears, read: HγD experiment 1, 72 °C 20 min, read-out: % Suppression.
The mark [2] stands for this setting: HγD experiment 2, 72 °C 20 min, read-out: % Suppression.
Where [3] appears, read: 500 μM drug, end point of turbidity assay 72 °C 20 min.
The mark [4] stands for this setting: read-out: % Suppression, HγD experiment 1, 72 °C 20 min.
Setting [5] is: read-out: % Suppression, HγD experiment 2, 72 °C 20 min.

Substitutions are numbered along the chain they refer to. Like-named read-outs stand apart in the source and are kept apart here.

As for `COC(=O)/C=C/C(C)=C\C=C\C(C)=C\C=C\C=C(C)\C=C\C=C(C)\C=C\C(=O)O` [drug B, Bixin], the inhibition at 125 µM at HγD (setting [1]) came to 63%; on HγD (setting [2]) it was 60%. Besides, the inhibition on HγS_N76D is 57%; at HγS_N14/76/143D, 46%. The inhibition at 500 µM on WT-MγS (setting [3]) was 55.5 ± 8.03%.
For the compound `Cc1cc(C(C#N)c2ccc(Cl)cc2)c(Cl)cc1NC(=O)c1cc(I)cc(I)c1O` (stereo not shown) [drug C, Closantel], the “Effect on HγD aggregation at low protein” value at HγD (400 μM drug) is “worsened HγD aggregation”. In addition, the “Effect on HγD at 2.0 mg/ml and 20 min” value at HγD (400 μM drug) is on record as “no baseline change”. Further, the inhibition at 125 µM at HγD (setting [4]) is 65%; at HγD (setting [5]) it was 73%; at HγS_N76D, 70%; on HγS_N14/76/143D, 76%. Moreover, at WT-MγS, the “Effect on MγS absorbance” value was “blocked absorbance”. Besides, the inhibition at 500 µM on WT-MγS was 80.5 ± 1.87%.
Turning to `CC(C)=CCCC1(C)C=Cc2c(O)c3c(c(CC=C(C)C)c2O1)OC12C(=CC4CC1C(C)(C)OC2(C/C=C(/C)C(=O)O)C4O)C3=O` (stereo not shown) [drug D, dihydrogambogic acid], the inhibition at 125 µM turned out to be 66% on HγD (setting [4]), 78% at HγD (setting [5]), 59% at HγS_N76D and 32% at HγS_N14/76/143D. Also, on WT-MγS, the inhibition at 500 µM stood at 80.4 ± 0.44%.
Regarding `CC(C)=CCC[C@]1(C)C=Cc2c(O)c3c(c(CC=C(C)C)c2O1)O[C@]12C(=C[C@@H]4C[C@H]1C(C)(C)O[C@@]2(C/C=C(/C)C(=O)O)C4=O)C3=O` [drug G, Gambogic acid], the “Effect on HγD aggregation at low protein” value at HγD (400 μM drug) is recorded as “worsened HγD aggregation”. Besides, at HγD (400 μM drug), the “Effect on HγD at 2.0 mg/ml and 20 min” value is given as “no baseline change”. Besides, the inhibition at 125 µM at HγD (setting [4]) was 69%; at HγD (setting [5]) it was 75%; on HγS_N76D it was 55%; at HγS_N14/76/143D, 89%. For the same compound, on HγD (HγD 2.5 mg/ml, 400 μM drug, 72 °C 20 min, 5% DMSO), the Turbidity suppression result is given as “markedly suppressed turbidity”. For the same compound, on WT-MγS, the “Effect on MγS absorbance” value is listed as “blocked absorbance”. In addition, at WT-MγS, the inhibition at 500 µM turned out to be 80.5 ± 2.45%.
For the compound `O=C(O)CCCCCCCCCCCC[C@@H]1C=CCC1` [drug M, Chaulmoogric acid], the inhibition at 125 µM at HγD (setting [1]) is 38%; at HγD (setting [2]), 73%. For the same compound, the inhibition at HγS_N76D is 55%; at HγS_N14/76/143D it was 46%. In addition, the inhibition at 500 µM on WT-MγS (setting [3]) turned out to be 46.3 ± 4.23%.
For the compound `Oc1c(Cl)cc(Cl)c(Cl)c1Cc1c(O)c(Cl)cc(Cl)c1Cl` [drug X, Hexachlorophene], the inhibition at 125 µM on HγD (setting [1]) is 61%; on HγD (setting [2]), 47%; at HγS_N76D it was 60%; at HγS_N14/76/143D, 71%. Also, the inhibition at 500 µM on WT-MγS stood at 39.7 ± 3.42%.
